Where “and” joins values, the source holds several entries; their conditions need not be identical. Equal entries are not always repeated.
Experiments:
[1] = molecular target: 5-hydroxytryptamine receptor 1B (Homo sapiens) (UniProt P28222); details: Compound concentration 10.0 uM
[2] = molecular target: T1, 5-hydroxytryptamine receptor 6 (Homo sapiens, UniProt P50406); experiment: GPCRScan assay: inhibition of 5-HT6; parameters: radioligand conc. used [nm] 2.0 – 4.0, parental cells stable HEK
Histamine H4 receptor [3] = molecular target: T2, Histamine H4 receptor (Homo sapiens, UniProt Q9H3N8); experiment: GPCRScan assay: inhibition of H4; parameters: radioligand conc. used [nm] 1.0 – 5.0, parental cells HEK T
T2 sequence (Q9H3N8 whole entry): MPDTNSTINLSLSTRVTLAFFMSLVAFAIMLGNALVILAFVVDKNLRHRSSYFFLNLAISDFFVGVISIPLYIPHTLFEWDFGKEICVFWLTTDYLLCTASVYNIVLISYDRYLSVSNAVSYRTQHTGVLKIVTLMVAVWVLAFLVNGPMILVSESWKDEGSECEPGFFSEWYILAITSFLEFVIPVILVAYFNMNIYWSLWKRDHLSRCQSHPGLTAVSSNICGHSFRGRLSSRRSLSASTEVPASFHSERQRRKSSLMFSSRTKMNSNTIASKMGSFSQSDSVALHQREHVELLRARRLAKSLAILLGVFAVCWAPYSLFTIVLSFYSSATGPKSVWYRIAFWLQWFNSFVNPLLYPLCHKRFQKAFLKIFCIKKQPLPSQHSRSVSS

[4] = molecular target: Delta-type opioid receptor (Homo sapiens) (UniProt P41143); details: Compound concentration 10.0 uM
Delta-type opioid receptor (Homo sapiens), sequence (P41143 whole entry): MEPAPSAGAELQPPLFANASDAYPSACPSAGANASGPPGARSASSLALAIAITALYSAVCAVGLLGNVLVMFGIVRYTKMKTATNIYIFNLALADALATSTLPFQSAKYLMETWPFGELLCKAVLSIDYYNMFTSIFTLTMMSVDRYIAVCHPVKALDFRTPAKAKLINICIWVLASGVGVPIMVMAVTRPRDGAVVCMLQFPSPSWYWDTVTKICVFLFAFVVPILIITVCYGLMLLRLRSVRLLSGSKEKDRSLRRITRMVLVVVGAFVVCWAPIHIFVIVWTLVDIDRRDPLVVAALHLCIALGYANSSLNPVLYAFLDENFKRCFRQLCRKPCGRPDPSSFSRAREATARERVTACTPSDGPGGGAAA

Histamine H4 receptor [5] = molecular target: T2, Histamine H4 receptor; details: Compound concentration 10.0 uM
[6] = molecular target: T1, 5-hydroxytryptamine receptor 6; details: Compound concentration 10.0 uM
[7] = molecular target: 5-hydroxytryptamine receptor 5A (Homo sapiens, UniProt P47898); experiment: GPCRScan assay: inhibition of 5-HT5A; parameters: radioligand conc. used [nm] 2.0 - 3.3, parental cells Flp-In CHO
[8] = molecular target: Beta-3 adrenergic receptor (Homo sapiens) (UniProt P13945); details: Compound concentration 10.0 uM
[9] = molecular target: T3, 5-hydroxytryptamine receptor 7 (Homo sapiens, UniProt P34969); details: Compound concentration 10.0 uM
T3 sequence (P34969 whole entry): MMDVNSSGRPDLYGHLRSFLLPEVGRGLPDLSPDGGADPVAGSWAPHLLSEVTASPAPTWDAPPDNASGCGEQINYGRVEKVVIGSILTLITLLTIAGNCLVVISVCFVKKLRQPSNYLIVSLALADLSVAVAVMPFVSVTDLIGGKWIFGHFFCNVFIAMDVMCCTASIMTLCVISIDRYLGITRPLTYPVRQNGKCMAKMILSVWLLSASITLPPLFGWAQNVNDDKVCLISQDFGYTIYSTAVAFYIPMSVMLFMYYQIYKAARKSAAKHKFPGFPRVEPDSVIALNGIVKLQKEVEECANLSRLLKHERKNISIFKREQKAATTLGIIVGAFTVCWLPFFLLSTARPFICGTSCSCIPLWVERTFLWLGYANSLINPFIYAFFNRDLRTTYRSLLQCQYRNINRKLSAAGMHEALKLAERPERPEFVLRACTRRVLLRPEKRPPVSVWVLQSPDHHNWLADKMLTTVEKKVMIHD

[10] = molecular target: Kappa-type opioid receptor (Homo sapiens) (UniProt P41145); details: Compound concentration 10.0 uM
Kappa-type opioid receptor (Homo sapiens), sequence (P41145 whole entry): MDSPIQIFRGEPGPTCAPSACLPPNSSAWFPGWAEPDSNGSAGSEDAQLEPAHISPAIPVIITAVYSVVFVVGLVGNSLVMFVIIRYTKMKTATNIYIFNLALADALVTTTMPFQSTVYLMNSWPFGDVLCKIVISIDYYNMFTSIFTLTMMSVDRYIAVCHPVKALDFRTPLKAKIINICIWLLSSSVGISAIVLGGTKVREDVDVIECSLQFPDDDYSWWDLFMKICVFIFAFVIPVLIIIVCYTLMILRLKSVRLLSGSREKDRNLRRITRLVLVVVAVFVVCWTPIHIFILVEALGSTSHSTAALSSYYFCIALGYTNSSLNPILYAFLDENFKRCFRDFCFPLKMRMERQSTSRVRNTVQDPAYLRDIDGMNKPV

[11] = molecular target: 5-hydroxytryptamine receptor 2B (Homo sapiens, UniProt P41595); experiment: GPCRScan assay: inhibition of 5-HT2B; parameters: radioligand conc. used [nm] 1.0 – 2.0, parental cells stable HEK
5-hydroxytryptamine receptor 2B, sequence (P41595 whole entry): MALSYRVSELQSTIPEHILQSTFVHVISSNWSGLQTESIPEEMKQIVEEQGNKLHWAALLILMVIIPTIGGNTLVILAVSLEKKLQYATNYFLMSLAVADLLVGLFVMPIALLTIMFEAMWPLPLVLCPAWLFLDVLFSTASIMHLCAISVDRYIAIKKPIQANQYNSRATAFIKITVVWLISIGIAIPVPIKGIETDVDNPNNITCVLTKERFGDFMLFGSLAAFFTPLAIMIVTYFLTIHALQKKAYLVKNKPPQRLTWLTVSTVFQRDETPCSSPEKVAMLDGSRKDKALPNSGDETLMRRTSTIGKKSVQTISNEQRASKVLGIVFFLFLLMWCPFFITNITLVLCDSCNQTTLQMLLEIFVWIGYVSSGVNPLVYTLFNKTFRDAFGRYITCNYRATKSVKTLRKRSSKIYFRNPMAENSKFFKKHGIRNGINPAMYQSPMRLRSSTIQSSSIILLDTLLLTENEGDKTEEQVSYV

[12] = molecular target: Alpha-1A adrenergic receptor (Homo sapiens) (UniProt P35348); details: Compound concentration 10.0 uM
Alpha-1A adrenergic receptor (Homo sapiens), sequence (P35348 whole entry): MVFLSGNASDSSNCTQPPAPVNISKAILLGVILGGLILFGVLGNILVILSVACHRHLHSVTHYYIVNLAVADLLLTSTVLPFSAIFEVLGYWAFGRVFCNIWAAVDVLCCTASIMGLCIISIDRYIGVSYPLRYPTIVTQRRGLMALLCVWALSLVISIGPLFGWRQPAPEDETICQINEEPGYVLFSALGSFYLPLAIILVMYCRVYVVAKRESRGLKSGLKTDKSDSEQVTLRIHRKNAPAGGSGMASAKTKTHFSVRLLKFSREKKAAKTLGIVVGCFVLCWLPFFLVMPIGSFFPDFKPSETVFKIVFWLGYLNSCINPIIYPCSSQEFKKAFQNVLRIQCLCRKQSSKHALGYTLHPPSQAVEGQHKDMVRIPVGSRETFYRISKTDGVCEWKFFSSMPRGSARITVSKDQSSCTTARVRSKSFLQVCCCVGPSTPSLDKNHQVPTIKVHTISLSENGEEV

[13] = molecular target: 5-hydroxytryptamine receptor 2A (Homo sapiens, UniProt P28223); experiment: GPCRScan assay: inhibition of 5-HT2A; parameters: radioligand conc. used [nm] 1.2 – 2.4, parental cells HEKT
Rattus norvegicus = species on record: Rattus norvegicus; details: Compound concentration 10.0 uM
[14] = molecular target: Sigma intracellular receptor 2 (Homo sapiens, UniProt Q5BJF2); experiment: GPCRScan assay: inhibition of Sigma 2; parameters: radioligand conc. used [nm] 5.0, parental cells HEKT
Sigma intracellular receptor 2, sequence (Q5BJF2 whole entry): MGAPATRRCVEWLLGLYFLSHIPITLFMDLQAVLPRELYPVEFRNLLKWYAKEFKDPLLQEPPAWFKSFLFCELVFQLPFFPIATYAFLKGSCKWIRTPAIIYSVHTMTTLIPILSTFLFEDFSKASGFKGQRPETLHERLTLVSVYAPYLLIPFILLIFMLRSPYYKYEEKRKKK

[15] = molecular target: 5-hydroxytryptamine receptor 1D (Homo sapiens, UniProt P28221); details: Compound concentration 10.0 uM
5-hydroxytryptamine receptor 1D, sequence (P28221 whole entry): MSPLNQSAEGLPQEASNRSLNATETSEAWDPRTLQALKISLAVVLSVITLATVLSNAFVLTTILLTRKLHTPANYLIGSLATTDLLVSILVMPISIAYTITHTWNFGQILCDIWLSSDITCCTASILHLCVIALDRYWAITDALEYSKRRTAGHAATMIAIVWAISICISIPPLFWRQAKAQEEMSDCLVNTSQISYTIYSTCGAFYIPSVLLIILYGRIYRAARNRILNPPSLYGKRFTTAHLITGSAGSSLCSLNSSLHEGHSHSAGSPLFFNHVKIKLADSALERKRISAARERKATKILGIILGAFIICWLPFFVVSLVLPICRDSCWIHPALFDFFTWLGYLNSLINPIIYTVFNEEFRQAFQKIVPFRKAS

[16] = molecular target: Sodium-dependent dopamine transporter (Homo sapiens, UniProt Q01959); experiment: GPCRScan assay: inhibition of DAT; parameters: radioligand conc. used [nm] 3.6 – 16.0, parental cells stable HEK
[17] = molecular target: Alpha-2B adrenergic receptor (Homo sapiens) (UniProt P18089); details: Compound concentration 10.0 uM
[18] = molecular target: 5-hydroxytryptamine receptor 1A (Homo sapiens) (UniProt P08908); details: Compound concentration 10.0 uM
5-hydroxytryptamine receptor 1A (Homo sapiens), sequence (P08908 whole entry): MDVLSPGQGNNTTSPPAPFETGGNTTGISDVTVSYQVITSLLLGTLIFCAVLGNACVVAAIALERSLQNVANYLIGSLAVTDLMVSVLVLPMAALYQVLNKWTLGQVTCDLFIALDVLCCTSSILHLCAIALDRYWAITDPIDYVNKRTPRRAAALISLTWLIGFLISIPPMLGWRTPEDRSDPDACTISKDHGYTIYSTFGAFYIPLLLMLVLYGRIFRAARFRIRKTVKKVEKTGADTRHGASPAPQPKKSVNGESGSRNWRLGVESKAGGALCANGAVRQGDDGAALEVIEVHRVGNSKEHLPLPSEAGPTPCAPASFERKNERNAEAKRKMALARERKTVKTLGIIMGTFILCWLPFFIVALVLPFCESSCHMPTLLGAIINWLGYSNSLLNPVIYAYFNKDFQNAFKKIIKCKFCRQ

[19] = molecular target: T4, 5-hydroxytryptamine receptor 2C (Homo sapiens, UniProt P28335); experiment: GPCRScan assay: inhibition of 5-HT2C; parameters: radioligand conc. used [nm] 1.0 – 2.5, parental cells HEK T
T4 sequence (P28335 whole entry): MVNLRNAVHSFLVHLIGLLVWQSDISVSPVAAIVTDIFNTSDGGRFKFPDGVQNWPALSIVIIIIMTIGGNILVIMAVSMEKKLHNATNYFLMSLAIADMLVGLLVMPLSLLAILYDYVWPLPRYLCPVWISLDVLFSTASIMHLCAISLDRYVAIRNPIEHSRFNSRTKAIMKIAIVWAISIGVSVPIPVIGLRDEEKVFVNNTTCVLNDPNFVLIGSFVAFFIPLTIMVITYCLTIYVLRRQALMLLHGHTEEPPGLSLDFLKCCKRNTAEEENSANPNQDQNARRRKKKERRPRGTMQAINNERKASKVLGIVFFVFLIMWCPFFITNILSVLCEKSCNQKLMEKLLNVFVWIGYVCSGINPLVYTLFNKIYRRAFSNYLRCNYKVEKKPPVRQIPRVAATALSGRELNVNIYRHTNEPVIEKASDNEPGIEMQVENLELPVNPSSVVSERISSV

[20] = molecular target: Muscarinic acetylcholine receptor M1 (Homo sapiens) (UniProt P11229); details: Compound concentration 10.0 uM
Protein O-GlcNAcase = Protein O-GlcNAcase (Homo sapiens, UniProt O60502); experiment: Enzymatic OGA assay
[21] = molecular target: D(4) dopamine receptor (Homo sapiens) (UniProt P21917); details: Compound concentration 10.0 uM
[22] = molecular target: Beta-1 adrenergic receptor (Homo sapiens) (UniProt P08588); details: Compound concentration 10.0 uM
Histamine H3 receptor = Histamine H3 receptor (Homo sapiens, UniProt Q9Y5N1); experiment: GPCRScan assay: inhibition of H3; parameters: radioligand conc. used [nm] 0.5 – 1.0, parental cells HEK Flp-In
Histamine H3 receptor, sequence (Q9Y5N1 whole entry): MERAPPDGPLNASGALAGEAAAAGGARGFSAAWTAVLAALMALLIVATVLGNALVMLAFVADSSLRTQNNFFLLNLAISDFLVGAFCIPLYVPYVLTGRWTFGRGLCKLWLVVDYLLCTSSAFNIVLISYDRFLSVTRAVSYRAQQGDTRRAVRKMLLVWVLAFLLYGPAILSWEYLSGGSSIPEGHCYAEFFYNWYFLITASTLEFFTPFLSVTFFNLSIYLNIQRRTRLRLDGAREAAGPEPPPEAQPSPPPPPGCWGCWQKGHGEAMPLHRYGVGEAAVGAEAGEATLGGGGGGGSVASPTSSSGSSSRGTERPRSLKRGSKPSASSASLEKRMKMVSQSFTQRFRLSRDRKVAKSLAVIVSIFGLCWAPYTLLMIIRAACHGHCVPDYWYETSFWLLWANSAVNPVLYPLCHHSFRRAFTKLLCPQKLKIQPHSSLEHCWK

[23] = molecular target: T3, 5-hydroxytryptamine receptor 7; experiment: GPCRScan assay: inhibition of 5-HT7A; parameters: radioligand conc. used [nm] 5.0 – 6.0, parental cells Stable HEK
[24] = molecular target: Mu-type opioid receptor (Homo sapiens) (UniProt P35372); details: Compound concentration 10.0 uM
[25] = molecular target: Sigma non-opioid intracellular receptor 1 (Homo sapiens, UniProt Q99720); experiment: GPCRScan assay: inhibition of Sigma 1; parameters: radioligand conc. used [nm] 4.0 – 5.0, parental cells HEKT
Histamine H2 receptor = Histamine H2 receptor (Homo sapiens, UniProt P25021); experiment: GPCRScan assay: inhibition of H2; parameters: radioligand conc. used [nm] 0.02 – 0.05, parental cells Stable HEK
Histamine H2 receptor, sequence (P25021 whole entry): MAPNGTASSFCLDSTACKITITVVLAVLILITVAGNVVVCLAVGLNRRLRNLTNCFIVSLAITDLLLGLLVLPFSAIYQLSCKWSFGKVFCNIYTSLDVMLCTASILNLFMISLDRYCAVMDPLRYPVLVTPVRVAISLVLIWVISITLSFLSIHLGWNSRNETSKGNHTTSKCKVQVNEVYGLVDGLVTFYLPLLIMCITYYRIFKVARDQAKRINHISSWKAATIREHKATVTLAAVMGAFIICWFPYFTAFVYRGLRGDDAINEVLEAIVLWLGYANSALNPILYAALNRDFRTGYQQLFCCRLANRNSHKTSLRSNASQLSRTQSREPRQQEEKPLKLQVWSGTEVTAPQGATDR

[26] = molecular target: Muscarinic acetylcholine receptor M2 (Homo sapiens) (UniProt P08172); details: Compound concentration 10.0 uM
[27] = molecular target: D(1B) dopamine receptor (Homo sapiens) (UniProt P21918); details: Compound concentration 10.0 uM
[28] = molecular target: GABA-A receptor; anion channel; experiment: GPCRScan assay: inhibition of GABAA/BZP; assay type: protein-complex assay, Rattus norvegicus; parameters: radioligand conc. used [nm] 0.6 – 4.0, parental cells brain tissue
[29] = molecular target: Beta-hexosaminidase subunit beta (Homo sapiens, UniProt P07686); experiment: Enzymatic HEXB assay

T1 sequence (P50406 whole entry): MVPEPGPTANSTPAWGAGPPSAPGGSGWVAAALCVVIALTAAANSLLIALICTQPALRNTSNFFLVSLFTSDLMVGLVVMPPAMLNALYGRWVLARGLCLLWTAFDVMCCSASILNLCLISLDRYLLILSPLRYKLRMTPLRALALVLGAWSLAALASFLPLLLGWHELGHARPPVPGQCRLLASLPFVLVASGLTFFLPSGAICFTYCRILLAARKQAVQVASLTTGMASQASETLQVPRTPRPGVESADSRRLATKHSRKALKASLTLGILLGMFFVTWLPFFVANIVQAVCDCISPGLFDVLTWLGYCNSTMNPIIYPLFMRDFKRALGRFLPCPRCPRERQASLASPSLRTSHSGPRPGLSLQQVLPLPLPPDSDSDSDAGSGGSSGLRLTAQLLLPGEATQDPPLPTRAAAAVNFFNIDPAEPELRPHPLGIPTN

What does the source list for `CN1CCN(c2ccnc(NCCc3ccccc3)n2)CC1` [TP-040n]?
inhibition [1]: 45.9%; Ki [2]: 606 nM; Ki (Histamine H4 receptor [3]; read-out: Ki): 712 nM and 703 nM; Ki (Histamine H4 receptor [3]; read-out: pKi (converted)): 692 nM; inhibition [4]: 8.02%; inhibition (Histamine H4 receptor [5]): 82.8%; inhibition [6]: 80.4%; Ki ([7]; read-out: Ki): 6130 nM; Ki ([7]; read-out: pKi (converted)): 5130 nM; inhibition [8]: 2.45%; inhibition [9]: 92.4%; inhibition [10]: 23.7%; Ki ([11]; read-out: Ki): 291 nM; Ki ([11]; read-out: pKi (converted)): 282 nM; inhibition [12]: 19.2%; Ki ([13]; read-out: Ki): 758 nM; Ki ([13]; read-out: pKi (converted)): 692 nM; inhibition (Rattus norvegicus): -0.34%; Ki ([14]; read-out: Ki): 1460 nM; Ki ([14]; read-out: pKi (converted)): 1450 nM; inhibition [15]: 53.2%; Ki ([16]; read-out: Ki): 865 nM; Ki ([16]; read-out: pKi (converted)): 832 nM; inhibition [17]: 98%; inhibition [18]: 26.7%; Ki ([19]; read-out: Ki): 267 nM; Ki ([19]; read-out: pKi (converted)): 257 nM; inhibition [20]: 18.6%; IC50 (Protein O-GlcNAcase): > 10000 nM (not active); inhibition [21]: 13%; inhibition [22]: 6.05%; Ki (Histamine H3 receptor; read-out: Ki): 92.8 nM and 99.6 nM; Ki (Histamine H3 receptor; read-out: pKi (converted)): 81.3 nM; Ki [23]: 335 nM; inhibition [24]: 25.9%; Ki ([25]; read-out: Ki): 125 nM; Ki ([25]; read-out: pKi (converted)): 123 nM; Ki (Histamine H2 receptor; read-out: Ki): 149 nM; Ki (Histamine H2 receptor; read-out: pKi (converted)): 145 nM; inhibition [26]: -1.51%

What does the source list for `CC1CCN(c2ccnc(NCc3cn(C)cn3)n2)CC1` [TP-040]?
inhibition [1]: 24.4%; inhibition [4]: 4.65%; inhibition [27]: 5.03%; inhibition [6]: 32.1%; inhibition [9]: 34.6%; inhibition [10]: 36.6%; Ki ([11]; read-out: Ki): 699 nM; inhibition [12]: 15.4%; Ki [28]: 512 nM; inhibition (Rattus norvegicus): 17.9%; inhibition [15]: 81.9%; inhibition [17]: 56.3%; inhibition [18]: 30%; Ki ([19]; read-out: Ki): 374 nM; Ki ([19]; read-out: pKi (converted)): 363 nM; inhibition [20]: 17.2%; inhibition [21]: 3.89%; inhibition [22]: 3.97%; inhibition [24]: 10.8%; inhibition [26]: 7.21%; IC50 [29]: > 10000 nM (not active)
